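Tested at 5 concentrations; 48 h exposure; 96-well plates; endpoints linearly interpolated, else capped at highest concentration. GI50 = concentration required for 50% inhibition of growth. The concentration for full growth arrest is given as TGI.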
Columns and labels:
Assay in all cases: NCI anticancer screen, dose series, 48 h
[1] = tested on: 786-0 renal
[2] = tested on: SNB-75 CNS
[3] = tested on: NCI-H226 lung
[4] = tested on: OVCAR-8 ovarian
[5] = tested on: TK-10 renal
[6] = tested on: CAKI-1 renal
[7] = tested on: MALME-3M melanoma
[8] = tested on: SN12C renal
[9] = tested on: M14 melanoma

Row | Structure (SMILES) | TGI [1] | TGI [2] | TGI [3] | TGI [4] | TGI [5] | TGI [6] | TGI [7] | TGI [8] | TGI [9] | GI50 [2] | GI50 [3] | GI50 [4] | GI50 [5] | GI50 [8] | GI50 [9]
1 | Cc1ccc(S(=O)(=O)c2c(O)c3ccc(O)c(C)c3oc2=O)cc1 | > 100 µM | > 100 µM | > 100 µM | > 100 µM | > 100 µM | > 100 µM | > 100 µM | > 100 µM | > 100 µM | – | – | – | – | – | –
2 | CCOC(=O)Cn1nnc2cc(Nc3c(C)[n+]([O-])c4cc(F)c(OCC)cc4[n+]3[O-])ccc21 | > 100 µM | – | > 100 µM | > 100 µM | 64.4 µM | > 100 µM | – | – | > 100 µM | – | – | – | – | – | –
3 | O=P1(C(O)/C=C/c2ccccc2)N(Cc2ccccc2)[C@@H]2CCCC[C@H]2N1Cc1ccccc1 (stereo not given in full) | 18.8 µM | 54.5 µM | 17.2 µM | 13.2 µM | 28.5 µM | 65.5 µM | 8.45 µM | 11.6 µM | 19.8 µM | – | – | – | – | – | –
4 | COc1cccc(N2C(=O)CS(=O)(=O)C2c2cccc(Oc3ccccc3)c2)c1 (stereo not given) | 44.4 µM | 84.5 µM | 76.7 µM | 77.2 µM | 47.4 µM | > 100 µM | 69.8 µM | 38.2 µM | 89.7 µM | – | – | – | – | – | –
5 | C=C1CC(COc2ccc3c(C)c(C)c(=O)oc3c2C)(c2ccccc2)OC1=O (stereo not given) | 2.78 µM | 10.4 µM | 6.73 µM | 3.59 µM | 3.03 µM | 3.33 µM | 4.16 µM | 11.3 µM | 4.23 µM | – | – | – | – | – | –
6 | CC1(C)N=C(N)N=C(N)N1c1cccc(OCc2cccc(N)c2)c1 | > 100 µM | > 100 µM | > 100 µM | > 100 µM | > 100 µM | > 100 µM | > 100 µM | > 100 µM | > 100 µM | – | – | – | – | – | –
7 | CC1=C(C(=O)NC2CCCCC2)CC(C(=O)NC2CCCCC2)=C(C)N1 | > 100 µM | 64.9 µM | – | – | > 100 µM | > 100 µM | > 100 µM | > 100 µM | > 100 µM | – | – | – | – | – | –
8 | Nc1c(S(N)(=O)=O)cc(S(N)(=O)=O)cc1S(N)(=O)=O | > 100 µM | > 100 µM | > 100 µM | > 100 µM | > 100 µM | > 100 µM | > 100 µM | > 100 µM | > 100 µM | – | – | – | – | – | –
9 | O=C1N/N=C\c2ccc(cc2)OCc2cccc(n2)COc2ccc(cc2)/C=N\NC1=O | > 25 µM | > 25 µM | > 25 µM | > 25 µM | > 25 µM | – | > 25 µM | > 25 µM | > 25 µM | – | – | – | – | – | –
10 | C#CCOCC12C=CC(O1)C1COC(=O)C12 (stereo not given) | > 100 µM | > 100 µM | > 100 µM | > 100 µM | > 100 µM | > 100 µM | > 100 µM | > 100 µM | > 100 µM | – | – | – | – | – | –
11 | CC(O)CNC1=CC(=O)C(=O)c2ccccc21 (stereo not given) | 32.2 µM | 29.8 µM | – | – | 70.4 µM | 33.5 µM | 17.7 µM | 34.9 µM | 32.1 µM | – | – | – | – | – | –
12 | COC(=O)C1=C(C)NC(C)=C(C(=O)OC)C1c1cccc(N=O)c1 | 30.3 µM | – | 37.8 µM | 28.5 µM | 28.2 µM | 22.4 µM | 28.8 µM | 33.3 µM | 27 µM | – | – | – | – | – | –
13 | CNC(=S)NNc1ncnc2c1c(-c1ccc(Cl)cc1)cn2-c1ccc(C)cc1 | 24.2 µM | – | 57.5 µM | 31.5 µM | 35 µM | 23.2 µM | 33 µM | 24.3 µM | 26.5 µM | – | – | – | – | – | –
14 | O=CN1CCN(C(=O)c2ccco2)C1=S | 12.6 µM | 34.8 µM | 54.8 µM | 59 µM | 31 µM | 18.5 µM | 29.9 µM | 15.8 µM | 24.1 µM | – | – | – | – | – | –
15 | NC(N)=NS(=O)(=O)c1ccc(NC(=O)c2cccc3c(NNc4ccc(S(N)(=O)=O)cc4)c4ccccc4nc23)cc1 | > 100 µM | > 100 µM | > 100 µM | > 100 µM | > 100 µM | > 100 µM | 88.8 µM | > 100 µM | > 100 µM | – | – | – | – | – | –
16 | CCN1CCN(Cc2ccc(NC(=O)Nc3ccc(-n4ccc5c(NC(=O)c6ccccc6)nccc54)cc3)cc2C(F)(F)F)CC1 | – | 2.68 µM | 4.84 µM | 4.92 µM | > 100 µM | – | – | > 20.7 µM | 2.39 µM | 1.37 µM | 1.54 µM | 0.968 µM | 1.5 µM | 3.17 µM | 1.12 µM
17 | COc1ccc2c(c1)-c1c(c3cc(OC)ccc3n1CCN(C)C)CC2 | 22.7 µM | 43.4 µM | 30 µM | 32.6 µM | 28.9 µM | 28.8 µM | 31 µM | 26 µM | 28.5 µM | – | – | – | – | – | –
18 | CC[N+]1(C)CCC(O)(c2ccc(C)cc2)C(C(=O)c2ccc(C)cc2)C1 (stereo not given) | 34.6 µM | – | > 100 µM | > 100 µM | 47.5 µM | 61.4 µM | 52.7 µM | > 100 µM | > 100 µM | – | – | – | – | – | –
19 | Cc1nnc2n1-c1ccccc1N(Cc1ccccc1)CC2 | > 100 µM | > 100 µM | > 100 µM | > 100 µM | > 100 µM | > 100 µM | > 100 µM | > 100 µM | > 100 µM | – | – | – | – | – | –
20 | COC(=O)C1=C(C(=O)OC)SC(=C2SC3=C(SC(=C4SCCS4)S3)S2)S1 | > 100 µM | 6.86 µM | > 100 µM | > 100 µM | > 100 µM | > 100 µM | > 100 µM | > 100 µM | > 100 µM | – | – | – | – | – | –
21 | Cc1nc(SCC(N)=O)c2sc(=S)n(-c3ccccc3)c2n1 | > 10 µM | > 10 µM | > 10 µM | > 10 µM | > 10 µM | > 10 µM | > 10 µM | > 10 µM | > 10 µM | – | – | – | – | – | –
22 | NCCCCNCCCNC(=O)CNC(=O)CC(O)C(N)CCCC(NC(=O)C(CN)NC(=O)C(O)CNC(=O)CC(N)c1ccc(O)cc1)C(=O)O (stereo not given) | > 10 µM | > 10 µM | > 10 µM | > 10 µM | > 10 µM | > 10 µM | > 10 µM | > 10 µM | > 10 µM | – | – | – | – | – | –

Source: PubChem BioAssay (NCI)
